Assay results as given in patent publication EP0982397A1, “Inhibition of contact system activation” (Stichting Sanquin Bloedvoorziening, priority 1998, dated 2000).
Peptide text beside a SMILES is read from it.

Legend:
[1] = system: contact system; assay: Inhibition by synthetic peptides of contact system activation in EDTA-plasma induced by DS500; format: biochemical, human; conditions: Activator DS500
Procedure: (§1) • Figure 1: Effects of mAb KOK5 on activation of purified FXII. • A: Activation by kallikrein: Twenty-five µl of prewarmed FXII (125 nM), 25 µl of serial dilutions of mAb KOK5, 25 µl of prewarmed kallikrein (25 nM) and 25 µl of buffer yielding final concentrations of 50 mM Tris-HCl, 150 mM NaCl, 0.1% (wt/vol) Tween-20, pH 7.8, were incubated for 30 min at 37°C. Thereafter, 50 µl of assay mixture containing the chromogenic substrate S-2302 were added and the increase in absorbance at 405 nm at 37°C was recorded. Results are expressed as percentage of the total amount of FXII present in the mixture (as determined by limited digestion with 10 nM trypsin), and represent the mean ± SE of two experiments. […] Thereafter, 50 µl of assay mixture containing S-2302 were added and the increase in absorbance at 405 nm at 37°C was recorded. […] The reaction was stopped by adding 120 µl of stop buffer (PBS, 0.1 mg/ml SBTI, Polybrene 0.05% wt/vol) and the amount of FXIIa-C1-inhibitor (+---+), kallikrein-C1-inhibitor (o- -o) and factor XIa-C1-inhibitor (●- -●) complexes generated was measured. Results, expressed as percentage of the maximum amount of complexes generated in pooled plasma by DS500 (50 µg/ml), represent the mean values ± S.D. from three different experiments. • Figure 3. […] In addition 50 µl of purified FXII (500 nM) were first incubated for 2 min with kaolin and then with serial dilutions of mAb KOK5 for 15 min (+---+); whereafter the residual FXII clotting activity was measured. Results are expressed as percentage of inhibition compared to the clotting activity measured in the absence of mAbs and are the mean ± SE of two experiments. • Figure 4. […] After 10 min at room temperature tubes were centrifuged for 2 min at 10,000 g and the pellets were counted for radioactivity. Binding was expressed as the percentage of the total counts that were found in the pellet in the absence of mAbs. […] Bound FXII was detected by subsequent incubation with ^125I-anti-FXII antibodies. Results are expressed as percentage of the ^125I-anti-FXII added and represent the means of two experiments. • Figure 6. […]

[2] = system: contact system; assay: Inhibition by synthetic peptides of contact system activation in EDTA-plasma induced by kaolin; format: biochemical, human; conditions: Activator kaolin
Procedure: as §1, with “measured.” for “measured. Results, expressed as percentage of the maximum amount of complexes generated in pooled plasma by DS500 (50 µg/ml), represent the mean values ± S.D. from three different experiments. • Figure 3.”

[3] = biological target: FXII; assay: Binding of 125I-FXII to kaolin; design: species or system human
Procedure: • Figure 1: Effects of mAb KOK5 on activation of purified FXII. • A: Activation by kallikrein: Twenty-five µl of prewarmed FXII (125 nM), 25 µl of serial dilutions of mAb KOK5, 25 µl of prewarmed kallikrein (25 nM) and 25 µl of buffer yielding final concentrations of 50 mM Tris-HCl, 150 mM NaCl, 0.1% (wt/vol) Tween-20, pH 7.8, were incubated for 30 min at 37°C. Thereafter, 50 µl of assay mixture containing the chromogenic substrate S-2302 were added and the increase in absorbance at 405 nm at 37°C was recorded. Results are expressed as percentage of the total amount of FXII present in the mixture (as determined by limited digestion with 10 nM trypsin), and represent the mean ± SE of two experiments. […] Thereafter, 50 µl of assay mixture containing S-2302 were added and the increase in absorbance at 405 nm at 37°C was recorded. […] The reaction was stopped by adding 120 µl of stop buffer (PBS, 0.1 mg/ml SBTI, Polybrene 0.05% wt/vol) and the amount of FXIIa-C1-inhibitor (+---+), kallikrein-C1-inhibitor (o- -o) and factor XIa-C1-inhibitor (●- -●) complexes generated was measured. Results, expressed as percentage of the maximum amount of complexes generated in pooled plasma by DS500 (50 µg/ml), represent the mean values ± S.D. from three different experiments. • Figure 3. […] Binding was expressed as the percentage of the total counts that were found in the pellet in the absence of mAbs. […]

[4] = biological target: mAb KOK5; assay: cell-based or functional assay
[5] = read-out: FXIIa-C1inh (IC50 values)
[6] = read-out: FXIa-C1inh (IC50 values)
[7] = read-out: kal-C1inh (IC50 values)

Molecule: C[C@@H](O)[C@H](NC(=O)[C@H](CS)NC(=O)[C@H](CCC(N)=O)NC(=O)[C@H](Cc1c[nH]cn1)NC(=O)[C@@H](N)CO)C(=O)N[C@@H](Cc1c[nH]cn1)C(=O)N[C@@H](CCCNC(=N)N)C(=O)N[C@@H](CCCCN)C(=O)N[C@@H](CS)C(=O)N[C@@H](Cc1ccc(O)cc1)C(=O)O [SHQCTHRKCY] (H-SHQCTHRKCY-OH)
- IC50 [1, 5]: 3.15 ± 0.85 mM
- IC50 [1, 6]: 6.75 ± 1.25 mM
- IC50 [1, 7]: 5.25 ± 2.7 mM
- IC50 [2, 5]: 7 ± 1.4 mM
- IC50 [2, 6]: 7.5 ± 0.5 mM
- IC50 [2, 7]: 6 ± 2.1 mM
- IC50 relative to that of FXII itself (times higher) ([3]; inhibition of binding of 125I-FXII to kaolin): 10,000 times
- IC50 ([3]; synthetic peptides, read-out: IC50, inhibition of binding of 125I-FXII to kaolin): 0.9 mM

Molecule: AEGEFRFQTPQWE [synthetic peptide …]
- inhibition of FXII activation by kallikrein in the presence of mAb KOK5 (IC50) [4]: 0.05 mM
